In ChEMBL document CHEMBL4411277, “Structural Revision of Macropodumine A and Structure of 2-Deoxymacropodumine A, Daphniphyllum Alkaloids with 11-Membered Macrolactone Rings” (J Nat Prod, 2019):

Tested on: HeLa
Assay: Cytotoxicity against human HeLa cells assessed as reduction in cell viability by MTT assay
Type: functional, cell-based

## C[C@@H]1CN2C[C@H]3CCC(=O)OCC[C@H]4CC5=C(C4=O)[C@@]3(C)[C@H]2C[C@H]1C5=O
  IC50: 3.89 µM
